Experimental data from PubChem BioAssay (NCI).
Several values for one entry are separate records, joined by “and”; a condition that tells them apart may be missing. Equal values may be shown once.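 48-hour exposure; five concentrations; linearly interpolated endpoints. Here, GI50 denotes the concentration required for 50% inhibition of growth. TGI is the concentration that stops growth completely.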 Where a SMILES comes first, the peptide text is derived from it. [ ]: non-standard residue; d: D form. The star is where a group is joined. ξ: configuration not given here. X6 = FC(F)(F)c1cc(NC(=S)*)cc(C(F)(F)F)c1; ξF = NC(Cc1ccccc1)C(=O)O

How the values were obtained:
Experiment in all cases: DTP human tumour cell line panel, 48 h
[1] = system: HOP-18 NSCLC
[2] = system: LXFL 529 NSCLC
[3] = system: DMS 114 small cell lung
[4] = system: DU-145 prostate
[5] = system: NCI/ADR-RES ovarian
[6] = system: MDA-N
[7] = system: RXF-631 renal

SMILES | TGI [1] | TGI [2] | TGI [3] | GI50 [4] | TGI [4] | GI50 [5] | TGI [5] | TGI [6] | TGI [7]
N#CC1C(C#N)C2(c3ccccc3)C(c3ccccc3)=NN(c3ccccc3)CC12 (stereo not drawn) | > 100 µM | > 100 µM | > 100 µM | – | – | – | – | – | –
COc1ccc2c(c1)/C(=C/c1c(C)nc3sc(C)nn13)C(=O)N2 | – | – | – | 6.11 µM | > 100 µM | 1.83 µM | 13.6 µM | – | –
CO[C@H](C(=O)[C@@H](O)[C@@H](C)O)[C@@H]1Cc2cc3cc(O[C@H]4C[C@@H](O[C@H]5C[C@@H](O)[C@H](O)C(C)O5)[C@H](O)C(C)O4)c(C)c(O)c3c(O)c2C(=O)[C@H]1O[C@H]1C[C@@H](O[C@H]2C[C@@H](O[C@H]3C[C@](C)(O)C(=O)C(C)O3)[C@@H](O)C(C)O2)[C@H](O)C(C)O1 (stereo partly drawn) | – | – | – | 0.127 µM | > 33.2 µM | 15.3 µM | > 33.2 µM | – | –
Cc1nc2ccccc2c(N)c1-c1cc(C)c2c(C)nc3ccccc3c2n1 | – | – | – | 0.479 µM | 1.67 µM | 1.34 µM | 3.15 µM | – | –
NC(=O)c1cccc2cn(-c3ccc([C@@H]4CCCNC4)cc3)nc12 | – | – | – | 8.97 µM | 21.9 µM | 19.5 µM | > 74.5 µM | – | –
CCCCC(=O)OCC(=O)[C@]1(O)Cc2c(O)c3c(c(O)c2[C@@H](OC2CC(NC(=O)C(F)(F)F)C(O)C(C)O2)C1)C(=O)c1c(OC)cccc1C3=O (stereo partly drawn) | – | > 32.7 µM | 1.66 µM | – | 2.44 µM | – | – | 5.02 µM | 6.44 µM
CC(C)=CC(=O)C1c2cccc(O)c2C(=O)c2c(O)cc(C)cc21 (stereo not drawn) | 4.03 µM | 4.47 µM | 3.57 µM | – | – | – | – | – | –
Cc1cc(I)cc(CN(C)CCCCN2CCCCC2)c1O | – | – | – | 26.8 µM | > 100 µM | 19.5 µM | 73.2 µM | – | –
COC1=CC(c2ccc[nH]2)=N/C1=C\c1[nH]c(C)c(C(=O)OC(C)C)c1C | – | – | – | 0.0609 µM | 6.47 µM | 0.0367 µM | 1.42 µM | – | –
COc1cc(/C=N/NC(=O)c2ccc(C(F)(F)F)nc2Nc2ccc(Cl)cc2C)ccc1O | – | – | – | 4.27 µM | 16.3 µM | 2.66 µM | 9.97 µM | – | –
O=CC[C@H]1C(=O)C[C@@H]2CCC[C@@H]21 | – | > 100 µM | – | – | – | – | – | – | –
N#CCCN(CCC#N)c1ccc(/C=C2\N=C(c3cc([N+](=O)[O-])ccc3Cl)OC2=O)cc1 | – | 49.3 µM | 47.9 µM | – | – | – | – | – | –
CN/N=C(/Cc1occc(=O)c1O)C(=O)Nc1ccccc1C | – | > 100 µM | > 100 µM | – | – | – | – | – | –
COc1ccc2c3c1C(=O)CCCC3CO2 (stereo not drawn) | – | > 100 µM | > 100 µM | – | – | – | – | – | –
CCN(CCO)CC1CCCC2CCCCC21 (stereo not drawn) | – | – | – | – | > 100 µM | – | > 100 µM | > 100 µM | –
O=C(O)c1ccccc1[Se][Se]c1ccccc1C(=O)O | > 100 µM | – | > 100 µM | – | – | – | – | – | > 100 µM
O=C(CC1(O)C(=O)Nc2c(Cl)cc(Cl)cc21)c1ccc(Br)cc1Br (stereo not drawn) | 27.9 µM | – | 20.3 µM | – | 32.3 µM | – | – | 21.8 µM | 9.25 µM
CC(=O)NNc1nc(C)c(C(=O)NNC(=O)C(=O)Nc2ccc(Cl)cc2)s1 | – | > 100 µM | – | – | – | – | – | – | –
CCCCCCCCCCCCCCCCCC(CCCCCCCCCCCCCCCCC)OP(=O)(O)O | > 100 µM | > 100 µM | > 100 µM | – | – | – | – | – | –

SMILES | TGI [1] | TGI [2] | TGI [3] | GI50 [4] | TGI [4] | GI50 [5] | TGI [5] | TGI [6] | TGI [7]
Cn1cnc([N+](=O)[O-])c1Sc1nnc(-c2cccnc2)n1C | 35.6 µM | 24.4 µM | > 49.2 µM | – | > 80.7 µM | – | > 100 µM | 43.3 µM | –
COc1ccc(-c2nc3sccn3c2/C(N)=N/C(=N)N)cc1OC | – | – | – | 52.4 µM | > 100 µM | > 100 µM | > 100 µM | – | –
O=C1C=C(Cl)C(=O)C(c2ccc(Cl)cc2)=C1 | – | – | – | – | 46.5 µM | – | 79 µM | 27.5 µM | –
O=S1(=O)c2ccccc2NC(c2ccc3ccccc3c2)CC1c1ccccc1F (stereo not drawn) | 56.1 µM | – | – | – | – | – | – | – | > 100 µM
Cc1coc2c1CC1(C)C(CCC(O)C1C)C2 (stereo not drawn) | – | – | – | – | > 100 µM | – | > 100 µM | > 100 µM | –
COC(=O)[C@@H](NC(=O)CNC(=O)[C@H]1CCCN1C(=O)C(Cc1ccccc1)NC(=S)Nc1cc(C(F)(F)F)cc(C(F)(F)F)c1)C(C)C (stereo partly drawn) (X6-[ξF][dP]GV-OMe) | – | – | – | 4.85 µM | 20.8 µM | 3.47 µM | 43.3 µM | – | –
CCCCCN(CCCCC)CCCNc1c2c(nc3ccc(Cl)cc13)CCCC2 | – | – | – | 3.71 µM | 13.4 µM | 2.15 µM | 6.11 µM | – | –
CCOC(=O)[C@]1(OC(C)=O)C[C@H](OC(C)=O)[C@@H](C(F)COP(=O)(OCc2ccccc2)OCc2ccccc2)O1 (stereo partly drawn) | – | – | – | – | > 100 µM | – | > 100 µM | > 100 µM | –
COC1CCC(N2C(=O)CNc3ncc(-c4ccc(C(C)(C)O)nc4)nc32)CC1 (stereo not drawn) | – | – | – | 1.42 µM and 0.459 µM | > 38 µM | 1.64 µM and 0.435 µM | > 100 µM | – | –
CC(C)CCC[C@@H](C)[C@H]1CC[C@H]2[C@@H]3CC=C4C[C@@H](C(C(=O)O)C(=O)O)CC[C@]4(C)[C@H]3CC[C@]12C | – | – | – | 0.115 µM | 0.274 µM | 0.22 µM | 6 µM | – | –
O=C1C(Cl)=C(Nc2cccc(Cl)c2)C(=O)N1Cc1ccc(Cl)cc1Cl | – | – | – | 5.87 µM | 18.2 µM | 0.904 µM | 25 µM | – | –
O=C1C(=O)N(c2ccc(Cl)cc2Cl)C(=O)C(=O)C1c1nc2ccccc2s1 | > 100 µM | > 100 µM | > 100 µM | – | – | – | – | – | –
COc1cc(CNc2cnc3cc(N)cc(N)c3n2)cc(OC)c1 | – | – | – | 41.4 µM | > 100 µM | 34.3 µM | > 100 µM | – | –
Cc1ccc(C(=O)/C(=C/c2ccc([N+](=O)[O-])cc2)SCc2ccc(Cl)cc2)cc1 | – | – | – | 5.33 µM | > 100 µM | 2.06 µM | 6.81 µM | – | –
O=C1/C(=C/c2ccccc2)CN(C(=O)C(Cl)(Cl)Cl)C/C1=C\c1ccccc1 | 9.6 µM | 3.38 µM | 3.19 µM | – | – | – | – | – | –
CCOC(=O)CN1C(=O)c2cccc3cc([N+](=O)[O-])cc(c23)C1=O | 33.8 µM | 3.13 µM | 4.94 µM | – | – | – | – | – | –
COc1cc2c(cc1OC)-c1c3cc(O)ccc3nn[n+]1CC2 | > 100 µM | > 100 µM | > 100 µM | – | – | – | – | – | –
CCCCOC(=O)C1OC(O[C@H]2CCC3(C)C(CCC4(C)C3CC=C3C5CC(C)(C)CCC5(C(=O)O)CC[C@]34C)C2(C)C)C(OC2OC(CO)C(O)C(O)C2O)C(OC2OC(CO)C(O)C(O)C2O)C1O (stereo partly drawn) | – | – | – | – | – | 74 µM | > 100 µM | – | –
COC1=CC(=O)c2nc(-c3ccncc3)[nH]c2C1=O | – | – | – | > 100 µM | > 100 µM | > 100 µM | > 100 µM | – | –
